Tested on: A375 human melanoma cancer cell derived xenografts, intracranial
Test: Example 12 efficacy study, intracranial A375-luciferase CNS model: survival
Format: in vivo, BALB/c nude mice
Settings: 10 mg/kg PO/BID; for survival rate / mice that have demonstrated end point cut offs and were terminated: as of day 75; for median survival: dosing stopped on day 120, survival curve up to 200 days; for mice that have demonstrated end point cut offs and were terminated: groups of 8 mice
Experimental: For the efficacy study, agents were tested in A375 human melanoma cancer cell derived xenografts (CDX). This cell line was isolated from the primary melanoma of a person and is known to have a homozygous BRAF V600E mutation. The A375 tumor cells were maintained in vitro in DMEM medium supplemented with 10% fetal bovine serum and 1% Penicillin-Streptomycin at 37° C. in an atmosphere of 5% CO2 in air. The tumor cells were routinely subcultured twice weekly. The cells growing in an exponential growth phase were harvested and counted for tumor inoculation.
For this CNS study, A375 cells with a luciferase tag for tracking tumor cell signal, were injected intracranially into 6-8-week-old female BALB/c nude mice (Zhejiang Vital River Laboratory Animal Co., LTD. Beijing, China). The mice were anaesthetized, restrained, and sterilized prior to surgery. A sagittal cut was made above the anterior parietal and occipital bone with sterilized scalpel, the skull was unrevealed and cleaned with cotton bud, in this case the anterior fontanel could be available. A 2 mm hole was created to the right of the anterior fontanel and 0.5 mm ahead of the coronal on the skull with a cranial drill. Cell suspensions in 20% Matrigel were mixed and aspirated into injector carefully to avoid bubbles and wiped to avoid extracranial tumor genesis. The needle was inserted vertically into the cranial hole and the cell mixture was slowly injected for 2 minutes and held for another minute to decrease the drainage of the cell suspension. The wound was closed, and a subcutaneous injection of 5 mg/kg Meloxicam was given to relieve the pain and continued for 3 days. The mice were monitored closely until they woke up after the surgery. During the study, the care and use of animals was conducted in accordance with the regulations of the Association for Assessment and Accreditation of Laboratory Animal Care (AAALAC). After inoculation, the animals were checked daily for morbidity and mortality. At the time of routine monitoring, the animals would be checked for any effects of tumor growth and treatments on normal behavior such as mobility, food and water consumption, body weight gain/loss, eye/hair matting, and any other abnormal effect.
The administration of the test agents began three days after inoculation. CNS tumor-bearing mice were randomly assigned to groups of 8 mice and administered Compound 26 at 10 mg/kg orally (PO) twice a day (BID), Compound 141 at 10 mg/kg PO/BID, encorafenib at 35 mg/kg once a day orally, (PO/QD), or the vehicle alone PO/BID. Measurements for the presence of the A375 luciferase (CRL-1619-LUC2, ATCC, Manassas, VA, USA) cells within the CNS were done with IVIS Lumina III machine. Images were collected twice weekly to follow the growth of the models. The tumor-bearing mice were weighed and intraperitoneally administered luciferin (Perkin Elmer Inc-122799) at a dosage of 150 mg/kg. After 10 min, mice were pre-anesthetized with the mixture gas of oxygen and isoflurane. The bioluminescence value at 15 min post luciferin injection was recorded as the final value and plotted. The endpoint for individual mice was reached when the mouse body weight decreased by 20% when compared to their starting weight.

| SMILES | survival rate [%] | median survival [days] | mice that have demonstrated end point cut offs and were terminated |
| --- | --- | --- | --- |
| CCN(C)S(=O)(=O)Nc1ccc(F)c(Oc2ccc3ncn([C@H]4COC5(CCN(C6CC7(C6)CN(c6cc8c(cc6F)c(N6CCC(=O)NC6=O)nn8C)C7)CC5)C4)c(=O)c3c2)c1C#N [Compound 26, (3R)-3-[6-[2-cyano-3-[[ethyl(methyl)sulfamoyl]amino]-6-fluoro-phenoxy]-4-oxo-quinazolin-3-yl]-8-[2-[3-(2,4-dioxohexahydropyrimidin-1-yl)-5-fluoro-1-methyl-indazol-6-yl]-2-azaspiro[3.3]heptan-6-yl]-1-oxa-8-azaspiro[4.5]decane] | 75 | 91 | two |
| CCN(C)S(=O)(=O)Nc1ccc(F)c(Oc2ccc3ncn(C4CC5(CCN(C6CC7(C6)CN(c6cc8c(cc6F)c(N6CCC(=O)NC6=O)nn8C)C7)CC5)C4)c(=O)c3c2)c1C#N (stereo not drawn) [Compound 141, 6-[2-cyano-3-[[ethyl(methyl)sulfamoyl]amino]-6-fluoro-phenoxy]-3-[7-[2-[3-(2,4-dioxohexahydropyrimidin-1-yl)-5-fluoro-1-methyl-indazol-6-yl]-2-azaspiro[3.3]heptan-6-yl]-7-azaspiro[3.5]nonan-2-yl]-4-oxo-quinazoline] | 75 | 89.5 | 2 mice |

From patent US20260297060A1, “COMPOUNDS FOR THE DEGRADATION OF MUTANT BRAF” (C4 THERAPEUTICS, INC., priority 2023, published 2026)
